Where two headings read alike, the source gives them in different places.
Assays:
[1] = system: serum and liver lipid levels in normal rats; test: Effects on relative liver weight, serum and liver lipid levels in normal rats (100 mg/kg, 7 days); assay type: in vivo, Male Wistar strain rats; details: for Liver lipid levels Ch / Liver lipid levels PL / Liver lipid levels TG / Serum lipid levels Ch / Serum lipid levels PL / Serum lipid levels TG / Relative liver weight / Liver lipid levels Ch, relative to Control (100) / Liver lipid levels PL, relative to Control (100) / Liver lipid levels TG, relative to Control (100) / Relative liver weight, relative to Control (100) / Serum lipid levels Ch, relative to Control (100) / Serum lipid levels PL, relative to Control (100) / Serum lipid levels TG, relative to Control (100): Table 1; for Liver lipid levels Ch / Liver lipid levels PL / Liver lipid levels TG / Serum lipid levels Ch / Serum lipid levels PL / Serum lipid levels TG: fasted overnight; for Liver lipid levels Ch / Liver lipid levels PL / Liver lipid levels TG / Serum lipid levels Ch / Serum lipid levels PL / Serum lipid levels TG / Relative liver weight: mean ± S.E. (n = 6); for Liver lipid levels Ch, relative to Control (100) / Liver lipid levels PL, relative to Control (100) / Liver lipid levels TG, relative to Control (100) / Relative liver weight, relative to Control (100) / Serum lipid levels Ch, relative to Control (100) / Serum lipid levels PL, relative to Control (100) / Serum lipid levels TG, relative to Control (100): in parentheses
Protocol: (1) Effects on relative liver weight, serum and liver lipid levels in normal rats
Male Wistar strain rats, weighing 180-210 g were orally administered the present compounds (X=Cl, n1 =2, 3, 4 and n2 =1) and 4-(4-chlorobenzyloxy)benzyl nicotinate (KCD-232), being X=Cl, n1 =1, n2 =1, respectively, which were suspended in 0.5% carboxymethyl cellulose (CMC) solution once a day at a dose of 100 mg/kg b.w. for 7 days. The last administration was occured in rats fasted overnight. At 4 hr later blood was withdrawn from jugular vein, clotted and centrifuged to obtain serum. The liver was rapidly removed and weighed. Total lipids were extracted from the serum and liver, and cholesterol (Ch), triglycerides (TG) and phospholipids (PL) levels were determined.

[2] = system: serum and liver lipid levels in rats; test: Serum and liver lipid levels and relative liver weight in rats (100 mg/kg, 10 days); assay type: in vivo, Male rats of the Wistar strain; details: for response vs control in vivo at 100 mg/kg: Rattus norvegicus, po; for response vs control in vivo at 100 mg/kg / Relative liver weight, relative to Control (100): in parentheses, Control = (100); for Liver lipid levels Ch / Liver lipid levels PL / Liver lipid levels TG / Relative liver weight / Serum lipid levels Ch / Serum lipid levels PL / Serum lipid levels TG: Mean ± S.E. (n = 9)
Protocol: (2) Male rats of the Wistar strain weighing 160-180 g were fed a stock deit (CE-2, Japan CLEA, Tokyo) and water ad libitum. The present compounds and KCD-232 were suspended, respectively, in a 0.5% of CMC solution and give orally to rats once a day at a dose of 100 mg/kg b.w. for 10 days.
Control rats were received the 0.5% CMC solution alone. The diet was withdrawn immediately after the last administration of compounds. Animals were sacrificed by decapitation 4 hr after the last administration and blood was collected, clotted and centrifuged to obtain serum. The liver was excised quickly and weighed. Total lipids were extracted from the serum and liver, and the levels of Ch, TG and PL were determined colorimetrically.

[3] = system: serum and liver lipid levels in rats; test: Serum and liver lipid levels and relative liver weight in rats (25 mg/kg, 10 days); assay type: in vivo, male Wistar rats; details: Table 4
Protocol: (3) The present compounds and KCD-232 were orally given to male Wistar rats weighing 160-180 g once a day at a dose of 25 mg/kg b.w. for 10 days. Rats were subjected to fast for 4 hr immediately after the last administration of compounds, thereafter they were sacrificed by decapitation and blood was collected, clotted and centrifuged to obtain serum. The liver was removed quickly and weighed. Total lipids were extracted from the serum and liver, and then the levels of total Ch, TG and PL were determined with colorimetric methods.

[4] = in vivo; details: mouse, po, p o, male ICR mice
Excerpt: The present compounds were given to 6 week-old male mice of the ICR strain and their acute toxicity was examined.

[5] = 240 h, Table 2, read-out: Liver lipid levels PL, relative to Control (100)
[6] = Table 2, read-out: Liver lipid levels Ch, relative to Control (100)
[7] = Table 2, read-out: Liver lipid levels TG, relative to Control (100)
[8] = Table 2, read-out: Serum lipid levels Ch, relative to Control (100)
[9] = Table 2, read-out: Serum lipid levels PL, relative to Control (100)
[10] = Table 2, read-out: Serum lipid levels TG, relative to Control (100)
[11] = Table 2, 100 mg/kg p.o. 10 days
[12] = Table 3, 100 mg/kg p.o. 10 days
[13] = 25 mg/kg p.o. 10 days, Mean ± S.E. (n = 7)
[14] = in parentheses, Control = (100)

## O=C(OCc1ccc(OCc2ccc(Cl)cc2)cc1)c1cccnc1 [KCD-232, 4-(4-chlorobenzyloxy)benzyl nicotinate, reference compound]
[1]; 100 mg/kg p.o. 7 days
  Liver lipid levels Ch: 3.88 ± 0.12 mg/g liver
  Liver lipid levels PL: 36.6 ± 0.7 mg/g liver
  Liver lipid levels TG: 21.45 ± 2.23 mg/g liver
  Serum lipid levels Ch: 58.5 ± 5 mg/dL
  Serum lipid levels PL: 77.7 ± 6.4 mg/dL
  Serum lipid levels TG: 23.4 ± 2.2 mg/dL
  Relative liver weight: 3.20 ± 0.10 g/100 g b.w.
[1]
  Liver lipid levels Ch, relative to Control (100): 110
  Liver lipid levels PL, relative to Control (100): 99
  Liver lipid levels TG, relative to Control (100): 291
  Relative liver weight, relative to Control (100): 104
  Serum lipid levels Ch, relative to Control (100): 77
  Serum lipid levels PL, relative to Control (100): 76
  Serum lipid levels TG, relative to Control (100): 69
[1]; last administration in rats fasted overnight
  liver TG level (in words): remarkably rose liver TG level
[2]; [5]
  response vs control in vivo at 100 mg/kg: 99.2%
[2]; 240 h, Table 3, read-out: Liver lipid levels PL, relative to Control (100)
  response vs control in vivo at 100 mg/kg: 99.7%
[2]; [6]
  response vs control in vivo at 100 mg/kg: 104%
[2]; [7]
  response vs control in vivo at 100 mg/kg: 63.3%
[2]; [8]
  response vs control in vivo at 100 mg/kg: 72.5%
[2]; [9]
  response vs control in vivo at 100 mg/kg: 67.3%
[2]; [10]
  response vs control in vivo at 100 mg/kg: 32.7%
[2]; Table 3, read-out: Liver lipid levels Ch, relative to Control (100)
  response vs control in vivo at 100 mg/kg: 103%
[2]; Table 3, read-out: Liver lipid levels TG, relative to Control (100)
  response vs control in vivo at 100 mg/kg: 65.2%
[2]; Table 3, read-out: Serum lipid levels Ch, relative to Control (100)
  response vs control in vivo at 100 mg/kg: 70%
[2]; Table 3, read-out: Serum lipid levels PL, relative to Control (100)
  response vs control in vivo at 100 mg/kg: 62.1%
[2]; Table 3, read-out: Serum lipid levels TG, relative to Control (100)
  response vs control in vivo at 100 mg/kg: 36.1%
[2]; [11]
  Liver lipid levels Ch: 3.15 ± 0.08 mg/g liver
  Liver lipid levels PL: 37.8 ± 0.6 mg/g liver
  Liver lipid levels TG: 4.00 ± 0.28 mg/g liver
  Relative liver weight: 4.05 ± 0.05 g/100 g b.w.
  Serum lipid levels Ch: 62.8 ± 3 mg/dL
  Serum lipid levels PL: 100 ± 4.6 mg/dL
  Serum lipid levels TG: 40.5 ± 2.7 mg/dL
[2]; Table 2
  Relative liver weight, relative to Control (100): 105
[2]; [12]
  Liver lipid levels Ch: 2.39 ± 0.07 mg/g liver
  Liver lipid levels PL: 36.1 ± 0.4 mg/g liver
  Liver lipid levels TG: 4.67 ± 0.42 mg/g liver
  Relative liver weight: 3.71 ± 0.07 g/100 g b.w.
  Serum lipid levels Ch: 68.3 ± 3.1 mg/dL
  Serum lipid levels PL: 96.8 ± 3.4 mg/dL
  Serum lipid levels TG: 45.3 ± 3.5 mg/dL
[2]; Table 3
  Relative liver weight, relative to Control (100): 98
[3]; [13]
  Liver lipid levels Ch: 2.98 ± 0.08 mg/g liver
  Liver lipid levels PL: 40.2 ± 0.6 mg/g liver
  Liver lipid levels TG: 4.36 ± 0.65 mg/g liver
  Relative liver weight: 3.72 ± 0.07 g/100 g b.w.
  Serum lipid levels Ch: 63.5 ± 3.1 mg/dL
  Serum lipid levels PL: 89 ± 4.4 mg/dL
  Serum lipid levels TG: 31.3 ± 2.9 mg/dL
[3]; [14]
  Liver lipid levels Ch, relative to Control (100): 91.7
  Liver lipid levels PL, relative to Control (100): 105.8
  Liver lipid levels TG, relative to Control (100): 58.6
  Relative liver weight, relative to Control (100): 105
  Serum lipid levels Ch, relative to Control (100): 81.4
  Serum lipid levels PL, relative to Control (100): 82.3
  Serum lipid levels TG, relative to Control (100): 82.8
[4]
  LD50: 345 mg/kg

## O=C(OCc1ccc(OCCCCc2ccc(Cl)cc2)cc1)c1cccnc1 [n1=4, n2=1, 4-[4-(4-chlorophenyl)butoxy]benzyl nicotinate]
[1]; 100 mg/kg p.o. 7 days, compared with control
  serum Ch, TG and PL (in words): significantly reduced serum Ch, TG and PL
[1]; 100 mg/kg p.o. 7 days, p<0.05
  reduction of liver TG level compared with control: 32%
[1]; 100 mg/kg p.o. 7 days
  Liver lipid levels Ch: 3.43 ± 0.10 mg/g liver
  Liver lipid levels PL: 30.2 ± 1.4 mg/g liver
  Liver lipid levels TG: 5.06 ± 1.21 mg/g liver
  Serum lipid levels Ch: 45.3 ± 3.8 mg/dL
  Serum lipid levels PL: 60.4 ± 4.8 mg/dL
  Serum lipid levels TG: 16 ± 3.2 mg/dL
  Relative liver weight: 3.16 ± 0.05 g/100 g b.w.
[1]
  Liver lipid levels Ch, relative to Control (100): 97
  Liver lipid levels PL, relative to Control (100): 82
  Liver lipid levels TG, relative to Control (100): 69
  Relative liver weight, relative to Control (100): 102
  Serum lipid levels Ch, relative to Control (100): 60
  Serum lipid levels PL, relative to Control (100): 59
  Serum lipid levels TG, relative to Control (100): 47
[2]; 100 mg/kg p.o. 10 days
  lipid lowering effects compared with KCD-232 (in words): the lipid lowering effects were superior to that of KCD-232
[2]; [5]
  response vs control in vivo at 100 mg/kg: 107%
[2]; [6]
  response vs control in vivo at 100 mg/kg: 94.4%
[2]; [7]
  response vs control in vivo at 100 mg/kg: 80.5%
[2]; [8]
  response vs control in vivo at 100 mg/kg: 67.2%
[2]; [9]
  response vs control in vivo at 100 mg/kg: 60.9%
[2]; [10]
  response vs control in vivo at 100 mg/kg: 24.2%
[2]; [11]
  Liver lipid levels Ch: 2.87 ± 0.13 mg/g liver
  Liver lipid levels PL: 40.8 ± 0.7 mg/g liver
  Liver lipid levels TG: 5.06 ± 0.69 mg/g liver
  Relative liver weight: 4.04 ± 0.10 g/100 g b.w.
  Serum lipid levels Ch: 58.3 ± 3.3 mg/dL
  Serum lipid levels PL: 90.5 ± 4.6 mg/dL
  Serum lipid levels TG: 29.9 ± 2.3 mg/dL
[2]; Table 2
  Relative liver weight, relative to Control (100): 105
[4]
  LD50: > 4000 mg/kg

From patent publication US4556715A, “Nicotinic acid derivatives” (Kyorin Pharmaceutical Co., Ltd., priority 1980, dated 1985)
